According to PubChem BioAssay (NCI):
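Exposure lasted 48 hours, with cells grown in 96-well plates and compounds tested at five concentrations. TGI is the concentration that stops growth completely.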

What was measured:
Test in all cases: NCI-60 cell line screen, 48 h
[1] = test system: EKVX NSCLC
[2] = test system: SF-295 CNS
[3] = test system: SK-MEL-28 melanoma
[4] = test system: SK-MEL-5 melanoma
[5] = test system: COLO 205 colon
[6] = test system: HCC-2998 colon
[7] = test system: SNB-75 CNS
[8] = test system: HOP-92 NSCLC
[9] = test system: HCT-15 colon
[10] = test system: SF-268 CNS
[11] = test system: DU-145 prostate
[12] = test system: M14 melanoma
[13] = test system: MDA-MB-435
[14] = test system: CCRF-CEM leukemia
[15] = test system: SK-MEL-2 melanoma

| Structure (SMILES) | TGI [1] [µM] | TGI [2] [µM] | TGI [3] [µM] | TGI [4] [µM] | TGI [5] [µM] | TGI [6] [µM] | TGI [7] [µM] | TGI [8] [µM] | TGI [9] [µM] | TGI [10] [µM] | TGI [11] [µM] | TGI [12] [µM] | TGI [13] [µM] | TGI [14] [µM] | TGI [15] [µM] |
| --- | --- | --- | --- | --- | --- | --- | --- | --- | --- | --- | --- | --- | --- | --- | --- |
| O=C(O)CCC1(c2ccccc2)NC(=O)NC1=O (stereo not given) | > 100 | > 100 | > 100 | > 100 | > 100 | > 100 | > 100 | > 100 | > 100 | > 100 | > 100 | > 100 | > 100 | > 100 | > 100 |
| O=C(C1OC1c1ccc([N+](=O)[O-])cc1)C12CC3CC(CC(C3)C1)C2 (stereo not given) | 37.4 | 30.8 | 33.4 | 29.1 | 35.4 | 44.4 | 39.4 | 40.3 | 31.5 | 40.8 | 46.2 | 30.1 | 28.4 | 7.66 | 39.1 |
| CCC(=O)NCCc1c[nH]c2ccc(OC)cc12 | > 100 | > 100 | > 100 | > 100 | > 100 | > 100 | > 100 | > 100 | > 100 | > 100 | > 100 | > 100 | > 100 | > 100 | > 100 |
| C[C@@H]1OC(=O)C[C@H]2CC(=O)N(CCc3cn(S(=O)(=O)C(F)(F)F)c4ccccc34)C[C@@H]21 | > 100 | > 100 | > 100 | > 100 | > 100 | > 100 | > 100 | > 100 | > 100 | > 100 | > 100 | > 100 | > 100 | > 100 | > 100 |
| O=C(NCc1ccccc1)c1cnc(Cl)cn1 | > 100 | > 100 | > 100 | > 100 | > 100 | 43.3 | > 100 | 55 | 82.4 | > 100 | > 100 | > 100 | > 100 | 62.6 | > 100 |
| COC/C=C\[C@@]1(O)CCCC[C@@H]1CC(OC)OC | > 100 | 97.3 | > 80.6 | > 100 | > 100 | > 100 | > 100 | > 100 | > 100 | > 91.9 | > 100 | > 100 | > 76.1 | > 64.3 | > 100 |
| NC(CCCCNc1ccn(C2OC(CO)C(O)C2O)c(=O)n1)C(=O)O (stereo not given) | > 100 | > 100 | > 100 | > 100 | > 100 | > 100 | > 100 | > 100 | > 100 | > 100 | > 100 | > 100 | > 100 | > 100 | > 100 |
| NC(=O)N(O)c1cccc(Br)c1 | > 100 | > 100 | > 100 | > 100 | > 100 | > 100 | > 100 | > 100 | > 100 | > 100 | > 100 | > 100 | > 100 | > 100 | > 100 |
